Here are results for 4 molecules from paper PMC7311426, “An amphipathic peptide with antibiotic activity against multidrug-resistant Gram-negative bacteria” (Nature Communications, 2020).

Residues, ends and D or L forms follow the SMILES beside them.

Data set [1] concerns HepG2 liver hepatocellular carcinoma cells. Description: in vitro.
For data set [2], the system named is E. coli AID#172. It is filed as in vivo, E. coli in NMRI mice. Here is the method:
Peritonitis and UTI murine models were performed at the Department of Microbiology & Infection Control, Statens Serum Institute, Copenhagen, Denmark, under approval by the National Committee of Animal Ethics, Denmark, and adhered to the standards of EU Directive 2010/63/EU. The mouse pneumonia model was performed by Evotec Ltd, United Kingdom, under UK Home Office Licenses and with local ethical committee clearance. All animal studies were contracted by Adenium Biotech ApS.
(§1) Peptides were prepared in Ringer’s acetate pH 6.0 (vehicle) at 34 mg mL^−1. Comparator antibiotics included meropenem (Meronem®, AstraZeneca), polymyxin B sulfate (Sigma) and tobramycin (Novartis).
The E. coli peritonitis in vivo model was conducted using an E. coli AID#172 strain in female NMRI mice (Harlan) that were rendered neutropenic by injecting 0.5 mL cyclophosphamide solution (Apodan®) intraperitoneally for 4 days (~200 mg kg^−1) and 1 day (~100 mg kg^−1) prior to inoculation of infection. At time −1 h, mice were inoculated intraperitoneally with 0.5 mL of 2 × 10^6 CFU mL^−1 E. coli AID#172 suspension in the lateral lower quadrant of the abdomen. […] CFU counts were determined from blood and peritoneal fluid at 0 and 5 h after treatment. The mice were anesthetized with Zoletil® and blood was collected by axillary cut down. The mice were killed by cervical dislocation, a total of 2 mL sterile saline was injected i.p. and the abdomen gently massaged before it was opened, fluid sampled with a pipette, and collected for CFU counts on agar.

The subject of data set [3] is E. coli AID#172. The data set is classed as in vivo, E. coli in NMRI mice. The protocol: as §1
The E. coli thigh infection in vivo model was conducted using an E. coli AID#172 strain in female NMRI mice (Taconic) that were rendered neutropenic as above. At time −1 h, mice were inoculated intramuscularly in the quadriceps femoral muscle close to the femur of the left hind leg with 0.05 mL of a suspension of ~1–5 × 10^7 CFU mL^−1 of E. coli (fresh overnight colonies from 5% Horse Blood Agar plate suspended in sterile saline to ~10^8 CFU mL^−1, then diluted) with compound administered intravenously 1 and 12 h post infection (injection over 30 s with 10 mL kg^−1 of 0.6–15 mg kg^−1 AA139 or 5 mg kg^−1 polymyxin B). Colony counts were determined in thighs at 0 and 24 h post infection. The mice were killed by cervical dislocation, the skin was removed and the left hind leg from the hip joint to the hock was collected, cut into at least three parts and frozen at −80 °C. After thawing, the thighs were homogenized in 5 mL saline using a Dispomix® Drive. Each sample was then 10-fold diluted in saline and 20 μL spots were applied on 5% blood agar plates. All agar plates were incubated 18–24 h at 35 °C in ambient air.
The source holds these as a separate data set.

Data set [4] is described as follows: SPR binding to model membrane lipids. Also on record: unit: 100 × RU/MW. Particulars: mean of n = 3. Here is the method:
(§2) SPR experiments were performed on a Biacore T200 using an L1 sensor chip as previously described. Small unilamellar vesicles (SUVs) were prepared in PBS by sonication and extrusion. Lipids were dissolved in ethanol-free chloroform in 25 mL round-bottom flasks. 10% (mol/mol) of E. coli lipid A, diphosphoryl (Sigma-Aldrich, Cat # L5399) was added into 1,2-dimyristoyl-sn-glycero-3-phosphocholine (DMPC) (Auspep, Cat # 850345P) solution to make lipid A–DMPC mixtures, which were then deposited as a thin film by removal of the solvent (chloroform) under reduced pressure on a rotary evaporator and dried under high vacuum for at least 2 h. PBS was then added into each flask to give a 1 mM (DMPC) suspension, which was sonicated 5 min for five times. […] The SUVs were then injected into the flow cells of the L1 sensor chip for 2000 s at a low flow rate of 2 μL min^−1 to form a bilayer membrane model on the chip surface. Then, a series of peptide solutions (30–0.33 μM in 3-fold dilution), was injected across the flow cells at a flow rate of 30 μL min^−1, having an injection phase of 180 s, and a dissociation phase of 300 s. The binding responses (RU) were normalized by molecular weight (MW) of each peptide. The equation 100 × RU/MW was used for normalization.

Data set [5] in a line: SPR binding to model membrane lipids. Details: species or system E. coli. The conditions noted are these: for Binding to DMPC with lipid A versus DMPC alone (SPR): 1 µM and 10 µM, 100 × RU/MW at t = 180 s, n = 3, Student's t-test; for SPR response, Difference (Mean1 - Mean2): DMPC minus 10% lipid A-DMPC, multiple t-tests; for SPR response, Mean2 (10% lipid A-DMPC): mean of n = 3. The protocol:
as §2
For orientation: Surface plasmon resonance follows binding to a sensor surface in real time, without labels.

[6] abbreviates: AA139 3.75 mg kg-1, Meropenem 40 mg kg-1, Dunnett's multiple comparisons test.
The mark [7] stands for this setting: MDR E. coli AID #172, AA139 3.75 mg kg-1, Meropenem 40 mg kg-1, mean of n = 3.

On to `CC(C)[C@@H]1NC(=O)[C@H](Cc2ccc(O)cc2)NC(=O)[C@H](Cc2c[nH]c3ccccc23)NC(=O)[C@@H](NC(=O)[C@H](Cc2ccccc2)NC(=O)CN)CSSC[C@@H](C(=O)N[C@@H](CC(N)=O)C(=O)O)NC(=O)[C@H](CCCNC(=N)N)NC(=O)[C@H](CCCNC(=N)N)NC(=O)[C@H](Cc2ccc(O)cc2)NC(=O)[C@@H]2CSSC[C@H](NC1=O)C(=O)N[C@@H](C)C(=O)N[C@@H](CCCNC(=N)N)C(=O)N[C@@H](CCCNC(=N)N)C(=O)N[C@@H](CC(N)=O)C(=O)NCC(=O)N[C@@H](C)C(=O)N[C@@H](CCCNC(=N)N)C(=O)N[C@@H](C(C)C)C(=O)N2` [AA139] (HELM PEPTIDE1{G.F.C.W.Y.V.C.A.R.R.N.G.A.R.V.C.Y.R.R.C.N}$PEPTIDE1,PEPTIDE1,3:R3-20:R3|PEPTIDE1,PEPTIDE1,7:R3-16:R3$$$V2.0), for which, in data set [1], the “CC50 HepG2” value was more than 300 µg/mL and the “CC50 HepG2, Mean” value was more than 300 µg/mL. In data set [2] (mouse, in vivo, iv), the ED50 in blood amounted to 1.55 mg/kg and the “ED50 in peritoneal fluid” value amounted to 1.85 mg/kg. Further, in data set [3] (mouse, in vivo, iv), the ED50 in thigh stood at 4.8 mg/kg.

On to colistin, for which the “SPR response, Mean1 (DMPC)” value in data set [4] (1uM) was 7.037; in data set [4] (10uM) it was 58.5213. Also, the “Binding to DMPC with lipid A versus DMPC alone (SPR)” value in data set [5] was “Significant difference”. The “SPR response, Difference (Mean1 - Mean2)” value is -12.5563 in data set [5] (1uM) and -66.912 in data set [5] (10uM). For the same molecule, the “SPR response, Mean2 (10% lipid A-DMPC)” value in data set [5] (1uM) is 19.5933; in data set [5] (10uM), 125.433.

`C[C@@H](O)[C@H]1C(=O)N2C(C(=O)O)=C(S[C@@H]3CN[C@H](C(=O)N(C)C)C3)[C@H](C)[C@H]12` [Meropenem, meropenem, reference compound]: in data set [2] (40 mg kg^−1 i.v., not statistically significant), the “Change of CFU levels in peritoneal fluid and blood vs vehicle” value is recorded as “slight reduction”. Also, in data set [2] (setting [6]), the “Blood 5hr, Mean Diff. vehicle vs. treatment” value is 0.6733 and the “PF 5hr, Mean Diff. vehicle vs. treatment” value worked out at 0.08333. In data set [2] (setting [7]), the “Blood 5hr bacterial load, Mean” value is on record as 3.163 and the “PF 5 hr bacterial load, Mean” value was determined as 4.56.

In the case of “polymyxin B [PolymyxinB, reference compound]”, the “SPR response, Mean1 (DMPC)” value in data set [4] (1uM) stood at 28.3373; in data set [4] (10uM) it was 126.211. For the same molecule, the “Binding to DMPC with lipid A versus DMPC alone (SPR)” value in data set [5] is on record as “Significant difference”. Moreover, the entries for the “SPR response, Difference (Mean1 - Mean2)” value in data set [5] (1uM) and in data set [5] (10uM) were -20.0727 and -95.8227, respectively. Moreover, the “SPR response, Mean2 (10% lipid A-DMPC)” value in data set [5] (1uM) was determined as 48.41; in data set [5] (10uM), 222.033. Besides, in data set [3] (5 mg kg^−1, two i.v. doses), the “Log reduction in thigh CFU compared to saline control” value was found to be 3.13 log.
